pEC50: −log10 of the molar value. Read-outs that look alike come from different tables or passages of the source. Values belong to the compound of their own block, whether it stands above or below them. Residues, ends and D or L forms follow the SMILES beside them. *: point of attachment. Biotin = O=C1N[C@H]2[C@H](CS[C@H]2CCCCC(=O)*)N1
Tests used:
[1] = molecular target: T1, rhBMP-2 binding to injectable collagen gel (Homo sapiens, UniProt P12643); experiment: Injectable collagen gel binding assay; conditions: tested for the ability to bind BMP-2 to a collagen gel
T1 construct: purchased R&D Systems 355-BM/CF
T1 sequence (P12643 283-396): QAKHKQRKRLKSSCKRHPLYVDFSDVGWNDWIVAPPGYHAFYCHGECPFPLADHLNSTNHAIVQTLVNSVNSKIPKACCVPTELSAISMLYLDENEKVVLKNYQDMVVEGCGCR
Protocol: The injectable collagen gel (0.1 mL) was aliquoted into a polypropylene plate. The plate was blocked with 150 µl of 1% BSA in TBS for 30 min. After spinning for 2 min, the supernatant was removed without disrupting the collagen gel. […] The wells were then washed, and an alkaline phosphatase labeled goat anti-mouse secondary antibody was added. After incubation and washing, binding was measured using the chromogenic reagent p-NPP, and absorbance was read at 405 nm.

[2] = molecular target: T2, rhBMP-2 (Homo sapiens, UniProt P12643); experiment: BMP-2 peptide binding assay (biotinylated peptide immobilized on streptavidin plate, rhBMP-2 titrated)
T2 construct: purchased R&D Systems 355-BM/CF
T2 sequence (P12643 283-396): T1 sequence (P12643 283-396)
Description: To measure the ability of a BMP-binding peptide to capture its target growth factor out of buffer or a complex biological solution such as plasma, biotinylated peptides were immobilized onto a streptavidin-coated 96 well plate. Varying low nanomolar concentrations of BMP-2 were “spiked” into human plasma or Tris-buffered saline (0.5 M NaCl), 0.05% Tween-20 (TBST) and added to the peptide-containing plates. […] Adding p-NPP produced a colored reactant, which was quantified using a SpectroMax (Molecular Devices) plate reader at 405 nm.

[3] = molecular target: T3, rhBMP-7 (Homo sapiens, UniProt P18075); experiment: Peptide cross-reactivity to other growth factors; format: binding; conditions: Figure 5; growth factor titrated in TBST for 1 h on immobilized peptide; antibody and p-NPP detection; read-out: EC50, BMP-7
T3 sequence (P18075 293-431): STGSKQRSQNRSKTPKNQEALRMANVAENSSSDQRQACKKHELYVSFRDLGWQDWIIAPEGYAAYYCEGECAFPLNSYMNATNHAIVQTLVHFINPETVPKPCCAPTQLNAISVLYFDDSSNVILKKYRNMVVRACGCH
Protocol: (§1) To measure the ability of a BMP-binding peptide to capture its target growth factor out of buffer or a complex biological solution such as plasma, biotinylated peptides were immobilized onto a streptavidin-coated 96 well plate. Varying low nanomolar concentrations of BMP-2 were “spiked” into human plasma or Tris-buffered saline (0.5 M NaCl), 0.05% Tween-20 (TBST) and added to the peptide-containing plates. After 1 hr incubation at room temperature (RT), plates were washed and incubated with an anti-BMP-2 antibody followed by a goat anti-mouse secondary antibody conjugated to alkaline phosphatase. Adding p-NPP produced a colored reactant, which was quantified using a SpectroMax (Molecular Devices) plate reader at 405 nm.
(§2) Figure 5 Peptide cross-reactivity to other growth factors. Peptides B-17 (A) and B-18 (B) were immobilized on a streptavidin-coated plate, and a range of concentrations of growth factors in the TGF-β superfamily were titrated onto the plate in TBST for 1 h. Growth factor binding was analyzed using antibody and p-NPP detection. […] Peptide B-17 also cross-reacted with rhBMP-3, rhBMP-5, and rhBMP-12. The peptides had lower affinities for all other growth factors tested. Data are presented as the absorbance read at 405 nm.

[4] = molecular target: T4, rhBMP-6 (Homo sapiens, UniProt P22004); experiment: Peptide cross-reactivity to other growth factors; format: binding; conditions: Figure 5; growth factor titrated in TBST for 1 h on immobilized peptide; antibody and p-NPP detection; read-out: EC50, BMP-6
T4 sequence (P22004 375-513): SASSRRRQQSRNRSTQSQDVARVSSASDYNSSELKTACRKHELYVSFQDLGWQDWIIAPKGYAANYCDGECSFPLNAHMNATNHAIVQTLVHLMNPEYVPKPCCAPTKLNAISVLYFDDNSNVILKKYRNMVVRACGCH
Protocol: as §1, §2

[5] = system: ectopic bone formation; experiment: In vivo ectopic bone formation study; parameters: species or system rat
Protocol: Male Sprague Dawley rats (150–175 g) were obtained from […], Charles River Laboratories (Raleigh, NC) and acclimated prior to surgery. The surgery was performed under general anesthesia by weight-adapted intraperitoneal injection of Xylazine 2% (Medistar; 12 mg/kg body weight) and Ketamine hydrochloride (Ketaset; 100 mg/mL; 80 mg/kg body weight). The thorax and abdomen were shaved and scrubbed with Betadine and alcohol. Using aseptic technique, two 5 mm incisions were made at the midline so that two subcutaneous pouches were prepared by blunt dissection. […] Each rat received two injections and a total of 20 animals were used in the study. […] In those experiments, rats were implanted with collagen gel containing either 1 or 5 μg of BMP-2.
The sites containing the injected material were explanted at two weeks and fixed in 10% neutral buffered formalin. The samples were placed in Formical 2000 decalcifier (American Mastertech) for 24 hours followed by Cal-arrest neutralizing solution for one hour. The tissue samples were processed in a Thermo-Electron, Shandon Excelsior Automated Tissue Processor for 14 hours. The process includes additional fixation in 10% buffered neutral formalin, dehydration through an ethanol gradient, and clearing with xylene at 40°C. Tissue was then embedded on a Leica EF 1140 H tissue embedding center in paraffin blocks for sectioning. Paraffin blocks were sectioned at 5 microns on a Reichert-Jung RM2065 microtome using Accu-Edge High Profile disposable stainless steel microtome blades. Three serial sections at intervals of 30 microns were obtained and placed on Super-frost Plus slides for hematoxylin and eosin staining (H&E). Staining was performed using a Sakura DRS-601 automatic slide stainer with a regressive Harris hematoxylin and Eosin Y Alcoholic for histological and morphological examination.
Histological sections were scored based on three criteria: Bone Cross-Sectional Area, Bone Maturity and Cellular Activity. Each segment was scored based on a 0–4 point scale by two observers (blinded to the study) who evaluated the entire implant under 10× magnification.

[6] = read-out: EC50 of BMP-2 binding to immobilized peptide
[7] = Figure 5, growth factor titrated in TBST for 1 h on immobilized peptide, antibody and p-NPP detection, read-out: EC50, BMP-2 (cross-reactivity experiment)
[8] = group median, 2 μg rhBMP-2 with 50-fold molar excess of peptide in collagen gel, rat, 2 weeks, p<.0001 vs no peptide

- Binding of BMP-2 by bifunctional peptide [1]: bound BMP-2
Compound: SWWGFWNGSAAPVWSR-GSSG-AGALGFPLKGEVVEGWA-GSSGK(Biotin) [BC-2]

- pEC50 [2, 6]: 8.27
Compound: CC(C)C[C@H](NC(=O)[C@H](CO)NC(=O)[C@H](CO)NC(=O)[C@H](Cc1ccccc1)NC(=O)[C@@H](NC(=O)[C@H](CCC(=O)O)NC(=O)[C@@H](N)Cc1c[nH]c2ccccc12)C(C)C)C(=O)N[C@@H](CCC(=O)O)C(=O)N[C@@H](CO)C(=O)NCC(=O)N[C@@H](CO)C(=O)N[C@H](C(=O)NCC(=O)N[C@@H](C)C(=O)NCC(=O)N[C@@H](C)C(=O)NCC(=O)O)C(C)C [Peptide B-8] (H-WEVFSSLESGSVGAGAG-OH)

- pEC50 [3]: 7.77
- pEC50 [4]: 8.89
- pEC50 [2, 7]: 8.85
Compound: CC(C)C[C@H](NC(=O)[C@H](CO)NC(=O)[C@H](CO)NC(=O)[C@H](Cc1ccccc1)NC(=O)[C@H](C)NC(=O)[C@H](CCC(=O)O)NC(=O)[C@H](Cc1c[nH]c2ccccc12)NC(=O)[C@H](C)NC(=O)CNC(=O)CNC(=O)CN)C(=O)N[C@@H](CO)C(=O)NCC(=O)N[C@@H](CO)C(=O)N[C@@H](CCCNC(=N)N)C(=O)N[C@H](C(=O)NCC(=O)N[C@@H](CO)C(=O)N[C@@H](CO)C(=O)NCC(=O)N[C@@H](CCCCNC(=O)CCCC[C@@H]1SC[C@@H]2NC(=O)N[C@@H]21)C(=O)O)C(C)C [Peptide B-17] (H-GGGAWEAFSSLSGSRVGSSGK(Biotin)-OH)

Compound: CC(C)C[C@H](NC(=O)[C@H](C)NC(=O)[C@H](CO)NC(=O)[C@H](Cc1ccccc1)NC(=O)[C@H](CO)NC(=O)[C@H](CO)NC(=O)[C@H](Cc1ccccc1)NC(=O)[C@H](C)NC(=O)[C@H](CO)NC(=O)[C@H](CC(=O)O)NC(=O)[C@H](CO)NC(=O)[C@@H](N)CO)C(=O)N[C@@H](CCC(=O)O)C(=O)NCC(=O)N[C@@H](CO)C(=O)N[C@H](C(=O)N[C@H](C(=O)O)C(C)C)C(C)C [Peptide B-6] (H-SSDSAFSSFSALEGSVV-OH)
- pEC50 [2]: 8.85

- pEC50 [2, 6]: 8.24
Compound: CC(C)C[C@H](NC(=O)[C@@H]1CCCN1C(=O)[C@H](Cc1ccccc1)NC(=O)[C@H](CCCNC(=N)N)NC(=O)[C@H](CC(C)C)NC(=O)[C@@H]1CCCN1C(=O)[C@H](CCC(=O)O)NC(=O)[C@@H](N)Cc1ccccc1)C(=O)N[C@@H](CCCCN)C(=O)NCC(=O)N[C@H](C(=O)N1CCC[C@H]1C(=O)N[C@H](C(=O)O)C(C)C)C(C)C [Peptide B-9] (H-FEPLRFPLKGVPV-OH)

- pEC50 [2, 6]: 6.49
Compound: CC(C)C[C@H](NC(=O)[C@H](C)NC(=O)[C@H](CCC(=O)O)NC(=O)[C@H](Cc1ccccc1)NC(=O)[C@H](C)NC(=O)[C@H](CC(=O)O)NC(=O)[C@H](Cc1c[nH]c2ccccc12)NC(=O)[C@H](C)NC(=O)[C@H](CO)NC(=O)[C@H](C)NC(=O)[C@@H](NC(=O)[C@@H](NC(=O)CNC(=O)[C@H](Cc1c[nH]c2ccccc12)NC(=O)[C@@H](N)CC(=O)O)C(C)C)C(C)C)C(=O)N[C@@H](CC(=O)O)C(=O)N[C@@H](C)C(=O)O [Peptide B-11] (H-DWGVVASAWDAFEALDA-OH)

- pEC50 [2, 6]: 7.59
Compound: CC(C)C[C@H](NC(=O)[C@H](CO)NC(=O)[C@H](CO)NC(=O)[C@H](Cc1ccccc1)NC(=O)[C@H](C)NC(=O)[C@H](CO)NC(=O)[C@H](Cc1ccccc1)NC(=O)[C@H](CO)NC(=O)CNC(=O)CNC(=O)[C@@H](N)CC(=O)O)C(=O)N[C@H](C(=O)N[C@@H](Cc1c[nH]c2ccccc12)C(=O)N[C@@H](C)C(=O)N[C@@H](C)C(=O)N[C@@H](CC(=O)O)C(=O)N[C@@H](CO)C(=O)O)C(C)C [Peptide B-10] (H-DGGSFSAFSSLVWAADS-OH)

- pEC50 [2, 6]: 7.54
Compound: CC(C)C[C@H](NC(=O)[C@H](C)NC(=O)[C@H](CO)NC(=O)[C@H](Cc1ccccc1)NC(=O)[C@H](CO)NC(=O)[C@@H](NC(=O)[C@H](Cc1c[nH]c2ccccc12)NC(=O)[C@H](C)NC(=O)CNC(=O)[C@H](C)NC(=O)[C@H](C)NC(=O)[C@H](C)NC(=O)[C@H](CCC(=O)O)NC(=O)CNC(=O)CN)C(C)C)C(=O)N[C@@H](CCC(=O)O)C(=O)N[C@@H](CO)C(=O)O [Peptide B-7] (H-GGEAAAGAWVSFSALES-OH)

- Binding of BMP-2 by bifunctional peptide [1]: bound BMP-2
Compound: SWWGFWNGSAAPVWSR-GSSG-AGAWEAFSSLSGSRV-GSSGK(Biotin) [BC-1]
- Median histology score: Bone area [5, 8]: 2.1 (26–35% of Implant Shows Evidence of Bone Formation)
- Median histology score: Bone maturity [5, 8]: 3.0
- Median histology score: Osteogenic cellular activity [5, 8]: 2.6
- Bone formation in preliminary experiments ([5]; rats implanted with collagen gel containing 1 or 5 μg of BMP-2, with or without peptide, data not shown): bone formation at both doses

- pEC50 [3]: 7.79
- pEC50 [4]: 8.19
- pEC50 [2, 7]: 8.55
- pEC50 [2, 6]: 8.72
Compound: CC(C)C[C@H](NC(=O)[C@H](C)NC(=O)CNC(=O)CN)C(=O)NCC(=O)N[C@@H](Cc1ccccc1)C(=O)N1CCC[C@H]1C(=O)N[C@@H](CC(C)C)C(=O)N[C@@H](CCCCN)C(=O)NCC(=O)N[C@@H](CCC(=O)O)C(=O)N[C@H](C(=O)N[C@H](C(=O)N[C@@H](CCC(=O)O)C(=O)NCC(=O)N[C@@H](Cc1c[nH]c2ccccc12)C(=O)N[C@@H](C)C(=O)NCC(=O)N[C@@H](CO)C(=O)N[C@@H](CO)C(=O)NCC(=O)N[C@@H](CCCCNC(=O)CCCC[C@@H]1SC[C@@H]2NC(=O)N[C@@H]21)C(=O)O)C(C)C)C(C)C [Peptide B-18] (H-GGALGFPLKGEVVEGWAGSSGK(Biotin)-OH)

- pEC50 [2, 6]: 7.92
Compound: CC(C)C[C@H](NC(=O)[C@H](CC(=O)O)NC(=O)[C@@H](NC(=O)[C@@H](N)CO)C(C)C)C(=O)N[C@@H](Cc1ccc(O)cc1)C(=O)N[C@@H](Cc1ccccc1)C(=O)N1CCC[C@H]1C(=O)N[C@@H](CC(C)C)C(=O)N[C@@H](CCCCN)C(=O)NCC(=O)N[C@@H](CC(=O)O)C(=O)N[C@H](C(=O)N[C@H](C(=O)O)C(C)C)C(C)C [Peptide B-12] (H-SVDLYFPLKGDVV-OH)

Reference: article PMC3738572, “Improved Bone Morphogenetic Protein-2 Retention in an Injectable Collagen Matrix Using Bifunctional Peptides” (PLoS ONE, 2013)
